Data reported in patent publication US20190211020A1 (Agency for Science, Technology and Research, priority 2012, published 2019).

System: eIF4E Ser209 phosphorylation in Hela cells
Assay: MNK cell-based assay (AlphaScreen SureFire, eIF4E Ser209 phosphorylation)
Conditions: Homo sapiens; eIF4E Ser209 phosphorylation, Hela cells, 2 hours; read-out: IC50 Hela
Excerpt: It has been reported that Ser209 of eIF4E is solely phosphorylated by the MNK enzymes. The ability of compounds to inhibit this process in Hela cells was investigated using the AlphaScreen SureFire® assay platform from Perkin Elmer (Waltham, Mass.). eIF4E phosphorylated on Ser209 is recognized by two antibodies, the first which is fused to a streptavidin coated donor bead binds to an epitope away from Ser209, the second which is fused to a protein A conjugated acceptor bead binds to phosphorylated Ser209. The phosphorylation of eIF4E on Ser209 brings the two antibodies into close proximity and when excited by a laser a singlet oxygen is released by the donor bead which excites the acceptor bead resulting in the emission of light. This enables the monitoring of eIF4E Ser209 phosphorylation and its inhibition in a cellular context.
Hela cells were seeded into microtitre plates (30,000 cells per well) in 100 μl of culture medium and incubated at 37° C. for 24 hours. The media was then removed by aspiration and the cells resuspended in 50 μl of serum free medium containing the test compound and incubated at 37° C. for 2 hours. The culture medium was again removed by aspiration and the cells resuspended in lysis buffer (provided in Perkin Elmer SureFire® Assay Kit). After agitation at 350 rpm for 20 minutes at 22° C., 4 μl was transferred to a 384 well OptiPlate™ (Perkin Elmer, Waltham, Mass.). To each well was added 5 μl of acceptor mix; the plate was sealed and agitated gently at 22° C. for 2 hours. Then, in subdued light, 2 μl of donor mix was added to each well, the plate was sealed, wrapped in aluminum foil and agitated gently at 22° C. for 2 hours. Emission was measured using the EnVision® plate reader (Perkin Elmer, Waltham, Mass.).
Inhibition constants (IC50) were determined by plotting AlphaScreen signal versus log compound concentration and fitting with a non-linear regression algorithm using GraphPad Prism (GraphPad Software Inc.).

Row | Structure (SMILES) | IC50 [nM]
1 | N#Cc1ccc(-c2cnc3ccc(-c4ccc(C(=O)N5CCNCC5)cc4)nn23)cc1 [Example 65, 4-(6-(4-(piperazine-1-carbonyl)phenyl)imidazo [1,2-b]pyridazin-3-yl)benzonitrile] | < 1000
2 | CCC1(NC(C)=O)CCN(C(=O)c2ccc(-c3ccc4ncc(-c5ccc(C#N)cc5)n4n3)cc2)CC1 [Example 66, N-(1-(4-(3-(4-cyanophenyl)imidazo[1,2-b]pyridazin-6-yl)benzoyl)-4-ethylpiperidin-4-yl)acetamide] | < 1000
3 | N#Cc1ccc(-c2cnc3ccc(-c4ccc(C(=O)N5CCNC(=O)C5)cc4)nn23)cc1 [Example 68, 4-(6-(4-(3-oxopiperazine-1-carbonyl)phenyl)imidazo [1,2-b]pyridazin-3-yl)benzonitrile] | < 1000
4 | CN1CCN(C(=O)c2ccc(-c3ccc4ncc(-c5ccc(C#N)cc5)n4n3)cc2)CC1=O [Example 69, 4-(6-(4-(4-methyl-3-oxopiperazine-1-carbonyl)phenyl)imidazo[1,2-b]pyridazin-3-yl)benzonitrile] | < 1000
5 | CN1CCN(C2CCN(C(=O)c3ccc(-c4ccc5ncc(-c6ccc(C#N)cc6)n5n4)cc3)CC2)CC1 [Example 70, 4-(6-(4-(4-(4-methylpiperazin-1-yl)piperidine-1-carbonyl)phenyl)imidazo [1,2-b]pyridazin-3-yl)benzonitrile] | < 1000
6 | N#Cc1ccc(-c2cnc3ccc(-c4ccc(C(=O)N5CCC6(CCCCN6)CC5)cc4)nn23)cc1 [Example 71, 4-(6-(4-(1,9-diazaspiro[5.5]undecane-9-carbonyl)phenyl)imidazo [1,2-b]pyridazin-3-yl)benzonitrile] | < 1000
7 | CN1CCN(C(=O)c2ccc(-c3ccc4ncc(-c5ccc(C#N)cc5)n4n3)cc2Cl)CC1 [Example 72, 4-(6-(3-chloro-4-(4-methylpiperazine-1-carbonyl)phenyl)imidazo[1,2-b]pyridazin-3-yl)benzonitrile] | < 1000
8 | CN1CCN(C(=O)c2ccc(-c3ccc4ncc(-c5ccc(C#N)cc5)n4n3)cc2F)CC1 [Example 73, 4-(6-(3-fluoro-4-(4-methylpiperazine-1-carbonyl)phenyl)imidazo[1,2-b]pyridazin-3-yl)benzonitrile] | < 1000
9 | Cc1cc(-c2ccc3ncc(-c4ccc(C#N)cc4)n3n2)ccc1C(=O)N1CCN(C)CC1 [Example 74, 4-(6-(3-methyl-4-(4-methylpiperazine-1-carbonyl)phenyl)imidazo[1,2-b]pyridazin-3-yl)benzonitrile] | < 1000
10 | COc1cc(C(=O)N2CCN(C)CC2)ccc1-c1ccc2ncc(-c3ccc(C#N)cc3)n2n1 [Example 78, 4-(6-(2-methoxy-4-(4-methylpiperazine-1-carbonyl)phenyl)imidazo[1,2-b]pyridazin-3-yl)benzonitrile] | < 1000
11 | CN1CCN(C(=O)c2ccc(-c3ccc4ncc(-c5ccc(C#N)cc5)n4n3)cc2[N+](=O)[O-])CC1 [Example 79, 4-(6-(4-(4-methylpiperazine-1-carbonyl)-3-nitrophenyl)imidazo[1,2-b]pyridazin-3-yl)benzonitrile] | < 1000
12 | CC(=O)Nc1cc(-c2ccc3ncc(-c4ccc(C#N)cc4)n3n2)ccc1C(=O)N1CCC(N(C)C)CC1 [Example 81, N-(5-(3-(4-cyanophenyl)imidazo[1,2-b]pyridazin-6-yl)-2-(4-(dimethylamino)piperidine-1-carbonyl)phenyl)acetamide] | < 1000
13 | CN1CCN(C(=O)c2ccc(-c3ccc4ncc(-c5ccc6c(c5)CC(=O)N6)n4n3)cc2)CC1 [Example 85, 5-(6-(4-(4-methylpiperazine-1-carbonyl)phenyl)imidazo [1,2-b]pyridazin-3-yl)indolin-2-one] | < 1000
14 | CN1CCN(C(=O)c2ccc(-c3ccc4ncc(-c5ccc6[nH]ncc6c5)n4n3)cc2)CC1 [Example 86, (4-(3-(1H-indazol-5-yl)imidazo[1,2-b]pyridazin-6-yl)phenyl)(4-methylpiperazin-1-yl)methanone] | < 1000
15 | CN1CCN(C(=O)c2ccc(-c3ccc4ncc(-c5ccc6[nH]cnc6c5)n4n3)cc2)CC1 [Example 87, (4-(3-(1H-benzo[d]imidazol-5-yl)imidazo[1,2-b]pyridazin-6-yl)phenyl)(4-methylpiperazin-1-yl)methanone] | < 1000
16 | CN1CCN(C2CCN(C(=O)c3ccc(-c4ccc5ncc(-c6ccc7c(c6)CC(=O)N7)n5n4)cc3)CC2)CC1 [Example 89, 5-(6-(4-(4-(4-methylpiperazin-1-yl)piperidine-1-carbonyl)phenyl)imidazo[1,2-b]pyridazin-3-yl)indolin-2-one] | < 1000

Row | Structure (SMILES) | IC50 [nM]
17 | O=C1Cc2cc(-c3cnc4ccc(-c5ccc(C(=O)N6CCC(N7CCOCC7)CC6)cc5)nn34)ccc2N1 [Example 94, 5-(6-(4-(4-morpholinopiperidine-1-carbonyl)phenyl)imidazo[1,2-b]pyridazin-3-yl)indolin-2-one] | < 1000
18 | CN1CCN(C(=O)c2ccc(-c3ccc4ncc(-c5ccc(C#N)cc5)n4c3)cc2)CC1 [Example 95, 4-(6-(4-(4-Methylpiperazine-1-carbonyl)phenyl)imidazo[1,2-a]pyridin-3-yl)benzonitrile] | < 1000
19 | N#Cc1ccc(-c2cnc3ccc(-c4ccc(C(=O)N5CCCOCC5)cc4)cn23)cc1 [Example 97, 4-(6-(4-(1,4-oxazepane-4-carbonyl)phenyl)imidazo [1,2-a]pyridin-3-yl)benzonitrile] | < 1000
20 | CCN1CCN(C(=O)c2ccc(-c3ccc4ncc(-c5ccc(C#N)cc5)n4c3)cc2)CC1 [Example 98, 4-(6-(4-(4-ethylpiperazine-1-carbonyl)phenyl)imidazo [1,2-a]pyridin-3-yl)benzonitrile] | < 1000
21 | CC(=O)NC1(C)CCN(C(=O)c2ccc(-c3ccc4ncc(-c5ccc(C#N)cc5)n4c3)cc2)CC1 [Example 99, N-(1-(4-(3-(4-cyanophenyl)imidazo[1,2-a]pyridin-6-yl)benzoyl)-4-methylpiperidin-4-yl)acetamide] | < 1000
22 | CCN(CC)C1(C)CCN(C(=O)c2ccc(-c3ccc4ncc(-c5ccc(C#N)cc5)n4c3)cc2)CC1 [Example 100, 4-(6-(4-(4-(diethylamino)-4-methylpiperidine-1-carbonyl)phenyl)imidazo[1,2-a]pyridin-3-yl)benzonitrile] | < 1000
23 | CN(CC(=O)N1CCOCC1)C(=O)c1ccc(-c2ccc3ncc(-c4ccc(C#N)cc4)n3c2)cc1 [Example 101, 4-(3-(4-cyanophenyl)imidazo[1,2-a]pyridin-6-yl)-N-methyl-N-(2-morpholino-2-oxoethyl)benzamide] | < 1000
24 | N#Cc1ccc(-c2cnc3ccc(-c4ccc(C(=O)N5CCNC(=O)C5)cc4)cn23)cc1 [Example 102, 4-(6-(4-(3-oxopiperazine-1-carbonyl)phenyl)imidazo[1,2-a]pyridin-3-yl)benzonitrile] | < 1000
25 | CN1CCCN(C(=O)c2ccc(-c3ccc4ncc(-c5ccc(C#N)cc5)n4c3)cc2)CC1 [Example 103, 4-(6-(4-(4-methyl-1,4-diazepane-1-carbonyl)phenyl)imidazo[1,2-a]pyridin-3-yl)benzonitrile] | < 1000
26 | CN1CCC(C2CCN(C(=O)c3ccc(-c4ccc5ncc(-c6ccc(C#N)cc6)n5c4)cc3)CC2)CC1 [Example 105, 4-(6-(4-(1′-methyl-4,4′-bipiperidine-1-carbonyl)phenyl)imidazo[1,2-a]pyridin-3-yl)benzonitrile] | < 1000
27 | CC1(O)CCN(C(=O)c2ccc(-c3ccc4ncc(-c5ccc(C#N)cc5)n4c3)cc2)CC1 [Example 106, 4-(6-(4-(4-hydroxy-4-methylpiperidine-1-carbonyl)phenyl)imidazo[1,2-a]pyridin-3-yl)benzonitrile] | < 1000
28 | N#Cc1ccc(-c2cnc3ccc(-c4ccc(C(=O)N5CCCNCC5)cc4)cn23)cc1 [Example 107, 4-(6-(4-(1,4-diazepane-1-carbonyl)phenyl)imidazo [1,2-a]pyridin-3-yl)benzonitrile] | < 1000
29 | N#Cc1ccc(-c2cnc3ccc(-c4ccc(C(=O)N5CCC(N)CC5)cc4)cn23)cc1 [Example 109, 4-(6-(4-(4-aminopiperidine-1-carbonyl)phenyl)imidazo[1,2-a]pyridin-3-yl)benzonitrile] | < 1000
30 | CS(=O)(=O)NC1CCN(C(=O)c2ccc(-c3ccc4ncc(-c5ccc(C#N)cc5)n4c3)cc2)CC1 [Example 111, N-(1-(4-(3-(4-cyanophenyl)imidazo[1,2-a]pyridin-6-yl)benzoyl)piperidin-4-yl)methanesulfonamide] | < 1000
31 | CN(C)C1CCN(C(=O)c2ccc(-c3ccc4ncc(-c5ccc(C#N)cc5)n4c3)cc2)CC1 [Example 112, 4-(6-(4-(4-(dimethylamino)piperidine-1-carbonyl)phenyl)imidazo[1,2-a]pyridin-3-yl)benzonitrile] | < 1000
32 | CCC1(N)CCN(C(=O)c2ccc(-c3ccc4ncc(-c5ccc(C#N)cc5)n4c3)cc2)CC1 [Example 113, 4-(6-(4-(4-amino-4-ethylpiperidine-1-carbonyl)phenyl)imidazo [1,2-a]pyridin-3-yl)benzonitrile] | < 1000
